Results reported in patent publication US6440978B2, “Therapeutic agent for dermatitis” (Nippon Zoki Pharmaceutical Co., Ltd., priority 2000, dated 2002).

What was measured:
[1] = system: phosphodiesterase type IV (PDE IV); experiment: Inhibitory action against phosphodiesterase type IV; type: biochemical, human
Text: (§1) The inhibitory action of the compounds of the present invention against activities of various phosphodiesterase (PDE) isozymes were investigated using the conventional method. Each of the inhibitory action of the compounds of the present invention on the activities of phosphodiesterase type II (PDE II) partially purified from human platelets, phosphodiesterase type III […] partially purified from human platelets, phosphodiesterase type IV (PDE IV) partially purified from human U937 promonocytic leukemia cells and phosphodiesterase type V (PDE V) partially purified from human platelets were measured.

[2] = target: T1, phosphodiesterase type V (PDE V) (Homo sapiens, UniProt O76074); experiment: Inhibitory action against phosphodiesterase type V; type: biochemical; conditions: 100 μM; PDE V from human platelets
T1 construct: phosphodiesterase type V (PDE V) partially purified from human platelets; from tissue; host or cells: human platelets
Text: as §1

ear of a normal mouse = experiment: Influence of repeated application on the ear thickness of a normal mouse; type: in vivo; conditions: nine times in total, 2 hours after final application
Experimental: The therapeutic agent for dermatitis according to the present invention or the positive control (steroid preparation) was applied twice daily to the right ear of a normal mouse for a total of nine times and, 2 hours after the final application, the thickness of the ear was measured.

[3] = system: antigen-induced swelling reaction in a mouse ear; experiment: Suppressive action against antigen-induced swelling reaction in a mouse ear; type: in vivo, BALB/c female mice
Experimental: Seven week old BALB/c female (SPF) mice of were selected as subjects. According to a method of Tanaka, et al. (Allergy, 46, pages 42-48(1997)), egg white albumin (final concentration: 2 μg/mL) and aluminum hydroxide gel (final concentration: 10 mg/mL) were suspended in physiological saline and 0.5 mL of the suspension was administered to effect intraperitoneal sensitization on the first day of the test. On the 14th day of the test, an additional sensitization was carried out under the same conditions. Further, on the 28th day of the test, 25 μL of egg albumin (a 20 μg/mL solution in physiological saline) was intradermally administered to the right ear of a mouse to induce a swelling reaction.
This swelling reaction reached its peak at 4 hours after the challenge by the antigen. Even after 24 to 48 hours, a significant swelling reaction was noted as compared with the control in which antigen was merely challenged (not sensitized). […] On the contrary, the swelling from 24 to 48 hours after the challenge is thought to be the so-called delayed-type swelling reaction accompanied by infiltration of eosinophils, neutrophils and lymphocytes. In addition, a flare-up reaction having a peak at 24 hours after the challenge appeared on the ear of the antigen-induced site. Like swelling, flare-up is an important symptom of inflammation. Although the mechanism of the flare-up reaction is ambiguous, it may be a flare-up reaction of a delayed type in view of the time course of its expression. As such, this model animal in which the inflammation of both immediate and delayed types are induced is appropriate as a model animal for atopic dermatitis. In the following experiment, the effectiveness of the therapeutic agent for dermatitis according to the present invention was tested using the said model animal.
Each of a vehicle (control) and a test agent (containing the compound of the present invention or a positive control) was applied to the antigen-induced site (right auricle) of a mouse. A swelling reaction was induced in accordance with Example 2 at 2 hours before and 4 hours after the challenge. After the challenge, the thickness of the swelling induced ear was measured by a Dial Thickness Gauge (manufactured by Ozaki Seisakusho). The intensity of the reaction was expressed in terms of an increase in the auricle thickness by deducting the thickness (early value) measured before the challenge from the thickness of the swelling induced ear. The suppression rate of the test drug for ear swelling was calculated by the following formula:
Suppression Rate (%)=100 ×[(Ear Thickness Increase of Vehicle-Only-Control)—(Ear Thickness Increase of the Test Group)]/[(Ear Thickness Increase of the Vehicle-Only-Control)—(Ear Thickness Increase of the Challenge-Only-Group)]

[4] = system: guinea pig eosinophils in the abdominal cavity; experiment: Suppression of LTB4-induced chemotaxis of guinea pig eosinophils (modified Boyden chamber); type: cell-based, Hartley male guinea pigs; conditions: Cavia porcellus, Eosinophil; chemotaxis induced by 10^-7 M LTB4, 37° C., 2 hours; 5 trials
Experimental: The suppressive effect of the compounds of the present invention on the leukotriene B4 or LTB4 induced chemotaxis of guinea pig eosinophils in the abdominal cavity were investigated using a modified Boyden chamber method. The guinea pig eosinophils in the abdominal cavity were prepared using Hartley male guinea pigs according to the conventional method. The chemotaxis of the eosinophils was induced by 10^−7 M of leukotriene B4 or LTB4 in 37° C. for 2 hours in the presence or absence of the test drug (the therapeutic agent for dermatitis of the present invention). After the chemotaxis cells were fixed and stained using the Giemsa stain, the number of chemotaxis cells was counted in visual fields of a microscope (×400). The experiments were repeated several times and the suppression rate of the test drug was calculated by the following formula:
Suppression Rate (%)=100×[(the number of chemotaxis eosinophils in control group)—(the number of chemotaxis eosinophils in the test drug group)]/[(the number of chemotaxis eosinophils in control group)—(the number of spontaneous chemotaxis eosinophils)]
The 50% inhibitory concentration (IC50) was calculated from the regression line obtained by the least square method based on the calculated suppression rates.

[5] = target: T2, phosphodiesterase type II (PDE II) (Homo sapiens, UniProt O00408); experiment: Inhibitory action against phosphodiesterase type II; type: biochemical; conditions: 100 μM; PDE II from human platelets
T2 construct: phosphodiesterase type II (PDE II) partially purified from human platelets; from tissue; host or cells: human platelets
T2 sequence (O00408 whole entry): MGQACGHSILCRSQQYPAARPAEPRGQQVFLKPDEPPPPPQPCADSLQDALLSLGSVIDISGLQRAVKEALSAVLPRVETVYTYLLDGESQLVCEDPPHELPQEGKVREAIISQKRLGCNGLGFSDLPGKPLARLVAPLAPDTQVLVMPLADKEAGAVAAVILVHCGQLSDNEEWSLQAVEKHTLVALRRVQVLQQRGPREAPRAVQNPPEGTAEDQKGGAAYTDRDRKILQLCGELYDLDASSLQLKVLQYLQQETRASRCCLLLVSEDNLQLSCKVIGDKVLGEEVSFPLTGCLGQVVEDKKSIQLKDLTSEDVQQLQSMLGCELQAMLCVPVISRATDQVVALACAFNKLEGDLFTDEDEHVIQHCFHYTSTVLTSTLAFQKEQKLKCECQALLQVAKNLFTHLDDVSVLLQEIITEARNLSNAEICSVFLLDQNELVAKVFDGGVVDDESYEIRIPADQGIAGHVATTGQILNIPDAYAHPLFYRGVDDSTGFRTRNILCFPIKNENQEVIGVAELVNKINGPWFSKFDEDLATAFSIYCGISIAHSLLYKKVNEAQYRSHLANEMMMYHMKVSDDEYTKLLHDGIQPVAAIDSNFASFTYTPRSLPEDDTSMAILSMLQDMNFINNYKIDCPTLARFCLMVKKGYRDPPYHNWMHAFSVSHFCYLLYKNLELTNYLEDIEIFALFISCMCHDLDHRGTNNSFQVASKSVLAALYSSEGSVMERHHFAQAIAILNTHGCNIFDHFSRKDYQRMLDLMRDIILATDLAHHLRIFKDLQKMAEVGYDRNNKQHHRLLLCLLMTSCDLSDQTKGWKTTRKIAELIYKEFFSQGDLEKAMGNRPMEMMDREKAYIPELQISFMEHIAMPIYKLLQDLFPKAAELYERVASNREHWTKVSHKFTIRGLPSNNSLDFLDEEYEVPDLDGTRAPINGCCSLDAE
Text: as §1

dose dependence of PDE IV inhibitory effect [1]: dose dependent | suppression activity against PDE IV ([1]; 100 μM, PDE IV from human U937 promonocytic leukemia cells): 82% | PDE isozyme selectivity ([1]; PDE IV versus PDE II, III and V at 100 μM): PDE IV selective inhibitory effect | suppression activity against PDE V [2]: 15% | Ear Thickness (ear of a normal mouse; 3% ointment applied twice daily): 22.3 ± 0.2 × 0.01 mm | Ear Thickness (ear of a normal mouse; 10% ointment applied twice daily): 22.3 ± 0.5 × 0.01 mm | melting point: 261 to 262 °C | IC50 [4]: 1.9 ± 0.4 µM | suppression activity against PDE II [5]: 6%
SMILES: Nc1ccc2c(=O)n(Cc3ccccc3)c(=O)n(-c3ccccc3)c2n1 [Compound 1, 7-amino-3-benzyl-1,2,3,4-tetrahydro-1-phenylpyrido[2,3-d]pyrimidin-2,4-dione]
Ear Thickness Increase at 1 hr after Challenge ([3]; Table 1, 1% ointment): 6.3 ± 1.4 × 0.01 mm | Suppression Rate of ear thickness increase at 1 hr after Challenge ([3]; Table 1, 1% ointment): (106.1%) | Ear Thickness Increase at 4 hr after Challenge ([3]; Table 1, 1% ointment): 18.0 ± 0.9 × 0.01 mm | Suppression Rate of ear thickness increase at 4 hr after Challenge ([3]; Table 1, 1% ointment): (34.0%) | Ear Thickness Increase at 8 hr after Challenge ([3]; Table 1, 1% ointment): 16.0 ± 0.4 × 0.01 mm | Suppression Rate of ear thickness increase at 8 hr after Challenge ([3]; Table 1, 1% ointment): (26.0%) | Ear Thickness Increase at 24 hr after Challenge ([3]; Table 1, 1% ointment): 9.3 ± 1.1 × 0.01 mm | Suppression Rate of ear thickness increase at 24 hr after Challenge ([3]; Table 1, 1% ointment): (51.3%) | Ear Thickness Increase at 48 hr after Challenge ([3]; Table 1, 1% ointment): 6.8 ± 1.0 × 0.01 mm | Suppression Rate of ear thickness increase at 48 hr after Challenge ([3]; Table 1, 1% ointment): (47.8%) | Ear Thickness Increase at 1 hr after Challenge ([3]; Table 1, 3% ointment): 5.3 ± 0.5 × 0.01 mm | Suppression Rate of ear thickness increase at 1 hr after Challenge ([3]; Table 1, 3% ointment): (136.4%) | Ear Thickness Increase at 4 hr after Challenge ([3]; Table 1, 3% ointment): 2.3 ± 0.9 × 0.01 mm | Suppression Rate of ear thickness increase at 4 hr after Challenge ([3]; Table 1, 3% ointment): (18.4%) | Ear Thickness Increase at 8 hr after Challenge ([3]; Table 1, 3% ointment): 15.8 ± 1.4 × 0.01 mm | Suppression Rate of ear thickness increase at 8 hr after Challenge ([3]; Table 1, 3% ointment): (27.2%) | Ear Thickness Increase at 24 hr after Challenge ([3]; Table 1, 3% ointment): 7.8 ± 0.9 × 0.01 mm | Suppression Rate of ear thickness increase at 24 hr after Challenge ([3]; Table 1, 3% ointment): (61.3%) | Ear Thickness Increase at 48 hr after Challenge ([3]; Table 1, 3% ointment): 5.3 ± 0.9 × 0.01 mm | Suppression Rate of ear thickness increase at 48 hr after Challenge ([3]; Table 1, 3% ointment): (64.1%) | Ear Thickness Increase at 4 hr after Challenge ([3]; Table 2, 0.3% ointment): 20.3 ± 2.4 × 0.01 mm | Suppression Rate of ear thickness increase at 4 hr after Challenge ([3]; Table 2, 0.3% ointment): (18.7%) | Ear Thickess Increase at 24 hr after Challenge ([3]; Table 2, 0.3% ointment): 13.5 ± 1.3 × 0.01 mm | Suppression Rate of ear thickness increase at 24 hr after Challenge ([3]; Table 2, 0.3% ointment): (19.4%) | Ear Thickness Increase at 4 hr after Challenge ([3]; Table 2, 3% ointment): 13.3 ± 0.3 × 0.01 mm | Suppression Rate of ear thickness increase at 4 hr after Challenge ([3]; Table 2, 3% ointment): (49.8%) | Ear Thickess Increase at 24 hr after Challenge ([3]; Table 2, 3% ointment): 9.3 ± 1.7 × 0.01 mm | Suppression Rate of ear thickness increase at 24 hr after Challenge ([3]; Table 2, 3% ointment): (46.5%)
